{"source": "patent US20230255219A1", "about": "“SLOW RELEASE COMPOSITE ACTIVE FILMS/PACKAGING TO REDUCE FOODBORNE PATHOGENS AND IMPROVE SHELF LIFE OF RAW AND READY TO EAT FOODS” (The Penn State Research Foundation, priority 2019, published 2023)", "key": {"[1]": {"system": "STEC cocktail", "type": "cell-based"}, "[2]": {"system": "S. aureus cocktail", "type": "cell-based, Staphylococcus aureus"}, "[3]": {"system": "S. aureus cocktail", "experiment": "Minimum bactericidal concentration (MBC), plating of wells on selective media", "type": "cell-based, Staphylococcus aureus", "method": "(§1) A resazurin indicator-based, 96-well microplate dilution method (Elshikh et al., 2016) was used for in vitro determination of MIC and MBC of LAE, nisin and thymol against different foodborne pathogens. Overnight cultures were grown in TSB (37° C.) and a cocktail of STEC, Salmonella spp., L. monocytogenes and S. aureus was prepared by mixing equal volumes of the three corresponding strains to obtain approximately 8 log10 CFU/mL of the pathogens. Bacterial cells were washed by centrifugation at 8000 rpm/10 minutes, and cell pellets were re-suspended in the same volume of sterile Mueller Hinton Broth (MHB; Difco).\n(§2) FIG. 1 illustrates the resazurin indicator-based, 96-well microplate dilution method for MIC determination of different antimicrobials against bacterial cocktails. A 100,000 IU/mL concentration of nisin (VWR) was dissolved in HCl 0.02N; 10% thymol (VWR) was prepared in concentrated ethanol; and 10% LAE (MB) was prepared in sterile distilled water. All antimicrobials were sterilized by filtration through a 0.22 μm filter (Pall; Ann Arbor, Mich.).). Each antimicrobial was diluted in sterile MHB to obtain a final concentration of 50,000 IU/mL of nisin, 5% thymol, and 5% LAE. Using a multi-channel pipette (Eppendorf; Haoppauge, N.Y.), one hundred μL of each antimicrobial in MHB was dispensed into a row in a 96-well microplate. Subsequent serial dilutions of the antimicrobials were made in MHB using the multi-channel pipette by transferring and mixing 50 μL of each compound to obtain antimicrobial concentrations of nisin (50,000-390.6 IU/mL), thymol (5-0.039%) and LAE (5-0.039%). Bacterial cocktails were diluted 1:100 in a sterile MHB to reach a concentration of approximately 6 log10 CFU/mL, with 50 μL of each cocktail added to the respective well. […]\n(§3) The MBC was determined by directly inoculating the content of wells with concentrations higher than the MIC value on selective growth media. […] The MBC value was determined as the lowest concentration when there were no bacterial colonies observed (Elshikh et al., 2016)."}, "[4]": {"system": "STEC cocktail", "type": "cell-based", "remark": "listed apart in the source"}, "[5]": {"system": "all tested bacterial pathogens (STEC, Salmonella spp., L. monocytogenes, S. aureus)", "type": "cell-based"}, "[6]": {"system": "L. monocytogenes cocktail", "type": "cell-based, Listeria monocytogenes"}, "[7]": {"system": "Salmonella spp. cocktail", "experiment": "Minimum bactericidal concentration (MBC), plating of wells on selective media", "type": "cell-based", "method": "as §1, §2, §3"}, "[8]": {"system": "Salmonella spp. cocktail", "type": "cell-based"}, "[9]": {"system": "L. monocytogenes cocktail", "experiment": "Minimum bactericidal concentration (MBC), plating of wells on selective media", "type": "cell-based, Listeria monocytogenes", "method": "as §1, §2, §3"}, "[10]": {"conditions": "cited from earlier work"}}, "data": [{"compound": "nisin", "values": [{"measurement": "MBC, Nisin", "setting": "[1]", "value": "Nil (key: Nil indicates there was no growth inhibition, nor killing effect at ≤ 50,000 IU/mL)"}, {"measurement": "MIC, Nisin", "setting": "[2]; 24 h at 37° C.", "value": "Nil (key: Nil indicates there was no growth inhibition, nor killing effect at ≤ 50,000 IU/mL)"}, {"measurement": "MBC, Nisin", "setting": "[3]", "value": "Nil (Nil indicates there was no growth inhibition, nor killing effect at ≤ 50,000 IU/mL)"}, {"measurement": "MIC, Nisin", "setting": "[4]; 24 h at 37° C.", "value": "Nil (key: Nil indicates there was no growth inhibition, nor killing effect at ≤ 50,000 IU/mL)"}, {"measurement": "antibacterial activity of nisin in MIC and MBC experiments", "setting": "[5]", "value": "very poor antibacterial activity"}, {"measurement": "MIC, Nisin", "setting": "[6]; 24 h at 37° C.", "value": "Nil (key: Nil indicates there was no growth inhibition, nor killing effect at ≤ 50,000 IU/mL)"}, {"measurement": "MBC, Nisin", "setting": "[7]", "value": "Nil (Nil indicates there was no growth inhibition, nor killing effect at ≤ 50,000 IU/mL)"}, {"measurement": "MIC, Nisin", "setting": "[8]; 24 h at 37° C.", "value": "Nil (key: Nil indicates there was no growth inhibition, nor killing effect at ≤ 50,000 IU/mL)"}, {"measurement": "MBC, Nisin", "setting": "[9]", "value": "Nil (Nil indicates there was no growth inhibition, nor killing effect at ≤ 50,000 IU/mL)"}]}, {"compound": "Cc1ccc(C(C)C)c(O)c1", "note": "[Thymol, thymol]", "values": [{"measurement": "MBC, Thymol", "setting": "[1]", "value": "2.5 % (W/V)"}, {"measurement": "MIC, Thymol", "setting": "[2]", "value": "0.156 % (W/V)"}, {"measurement": "MBC, Thymol", "setting": "[3]", "value": "1.25 % (W/V)"}, {"measurement": "MIC, Thymol", "setting": "[4]", "value": "1.25 % (W/V)"}, {"measurement": "MIC, Thymol", "setting": "[6]", "value": "0.625 % (W/V)"}, {"measurement": "MBC, Thymol", "setting": "[7]", "value": "2.5 % (W/V)"}, {"measurement": "MIC, Thymol", "setting": "[8]", "value": "0.625 % (W/V)"}, {"measurement": "MBC, Thymol", "setting": "[9]", "value": "1.25 % (W/V)"}]}, {"compound": "CCCCCCCCCCCC(=O)N[C@@H](CCCN=C(N)N)C(=O)OCC", "note": "[LAE, lauric arginate]", "values": [{"measurement": "MIC, LAE", "setting": "[2]; 24 h at 37° C.", "value": "0.078 % (V/V)"}, {"measurement": "MBC, LAE", "setting": "[3]", "value": "0.313 % (V/V)"}, {"measurement": "MIC, LAE", "setting": "[4]; 24 h at 37° C.", "value": "0.078 % (V/V)"}, {"measurement": "concentration of LAE that inhibited all tested bacterial pathogens", "setting": "[5]", "value": 0.078, "unit": "%"}, {"measurement": "MIC, LAE", "setting": "[6]; 24 h at 37° C.", "value": "0.078 % (V/V)"}, {"measurement": "metabolism of LAE in the human body", "setting": "[10]", "value": "rapidly metabolized in the human body to lauric acid and arginine"}, {"measurement": "MBC, LAE", "setting": "[7]", "value": "0.625 % (V/V)"}, {"measurement": "MIC, LAE", "setting": "[8]; 24 h at 37° C.", "value": "0.078 % (V/V)"}, {"measurement": "MBC, LAE", "setting": "[9]", "value": "0.313 % (V/V)"}]}]}
